Test results reported in the OligoGym collection.
HELM strings list units from the 5' end as sugar, base in round brackets, then linkage (d deoxyribose, r ribose, m 2'-O-methyl, p phosphodiester). Strings are as the collection lists them, not checked against the first reports. ss, as = sense and antisense strand; [fl2r] = 2'-fluoro

Conditions: siRNA
Note: test system not given here.

RNA1{r(C)p.[fl2r](U)p.r(G)p.r(A)p.r(C)p.r(C)p.r(G)p.r(G)p.r(A)p.r(A)p.[fl2r](G)p.r(C)p.r(G)p.r(C)p.r(U)p.[fl2r](U)p.r(A)p.r(A)p.r(A)p.r(T)p.r(T)}|RNA2{r(U)p.r(U)p.[fl2r](U)p.r(A)p.r(A)p.r(G)p.r(C)p.r(G)p.r(C)p.r(U)p.r(U)p.r(C)p.r(C)p.r(G)p.r(G)p.r(U)p.[fl2r](C)p.r(A)p.r(G)p.r(T)p.r(T)}$$$RNA1{StrandType:ss}|RNA2{StrandType:as}$
target mRNA knockdown: 85%

RNA1{r(C)p.[fl2r](U)p.r(G)p.r(A)p.r(C)p.r(C)p.r(G)p.r(G)p.r(A)p.r(A)p.r(G)p.r(C)p.r(G)p.r(C)p.r(U)p.r(U)p.r(A)p.r(A)p.r(A)p.r(T)p.r(T)}|RNA2{r(U)p.r(U)p.[fl2r](U)p.r(A)p.r(A)p.r(G)p.r(C)p.r(G)p.r(C)p.r(U)p.r(U)p.r(C)p.r(C)p.r(G)p.r(G)p.r(U)p.r(C)p.r(A)p.r(G)p.r(T)p.r(T)}$$$RNA1{StrandType:ss}|RNA2{StrandType:as}$
target mRNA knockdown: 87%

RNA1{r(C)p.m(C)p.r(C)p.m(C)p.r(A)p.m(G)p.r(G)p.m(U)p.r(A)p.m(A)p.r(C)p.m(G)p.r(A)p.r(U)p.r(U)p.m(U)p.r(U)p.r(C)p.r(U)p.r(T)p.r(T)}|RNA2{r(A)p.r(G)p.r(A)p.r(A)p.r(A)p.r(A)p.r(U)p.m(C)p.r(G)p.r(U)p.r(U)p.r(A)p.m(C)p.m(C)p.r(U)p.r(G)p.r(G)p.r(G)p.r(G)p.r(T)p.r(T)}$$$RNA1{StrandType:ss}|RNA2{StrandType:as}$
target mRNA knockdown: 69%

RNA1{r(C)p.m(U)p.m(A)p.r(C)p.r(C)p.r(U)p.r(U)p.r(C)p.r(U)p.r(C)p.r(C)p.r(U)p.r(C)p.r(U)p.r(U)p.r(C)p.r(U)p.r(C)p.r(C)p.r(T)p.r(T)}|RNA2{r(G)p.r(G)p.r(A)p.r(G)p.r(A)p.r(A)p.r(G)p.r(A)p.r(G)p.r(G)p.r(A)p.r(G)p.r(A)p.r(A)p.r(G)p.r(G)p.m(U)p.m(A)p.r(G)p.r(T)p.r(T)}$$$RNA1{StrandType:ss}|RNA2{StrandType:as}$
target mRNA knockdown: 68%

RNA1{r(C)p.m(U)p.r(A)p.r(C)p.r(C)p.r(U)p.r(U)p.r(C)p.r(U)p.r(C)p.r(C)p.r(U)p.r(C)p.r(U)p.r(U)p.r(C)p.r(U)p.r(C)p.r(C)p.r(T)p.r(T)}|RNA2{r(G)p.r(G)p.r(A)p.r(G)p.r(A)p.r(A)p.r(G)p.r(A)p.r(G)p.r(G)p.r(A)p.r(G)p.r(A)p.r(A)p.r(G)p.r(G)p.m(U)p.r(A)p.r(G)p.r(T)p.r(T)}$$$RNA1{StrandType:ss}|RNA2{StrandType:as}$
target mRNA knockdown: 69%

RNA1{r(C)p.m(U)p.r(A)p.r(G)p.r(U)p.r(C)p.r(G)p.r(A)p.m(A)p.r(A)p.r(G)p.r(A)p.m(A)p.m(A)p.r(A)p.r(C)p.r(G)p.r(G)p.r(G)p.r(T)p.r(T)}|RNA2{r(C)p.r(C)p.r(C)p.r(G)p.r(U)p.r(U)p.r(U)p.r(U)p.r(C)p.r(U)p.r(U)p.r(U)p.r(C)p.r(G)p.r(A)p.r(C)p.m(U)p.r(A)p.r(G)p.r(T)p.r(T)}$$$RNA1{StrandType:ss}|RNA2{StrandType:as}$
target mRNA knockdown: 55%

RNA1{r(C)p.m(U)p.r(A)p.r(G)p.r(U)p.r(C)p.r(G)p.r(A)p.r(A)p.r(A)p.r(G)p.r(A)p.r(A)p.r(A)p.r(A)p.r(C)p.r(G)p.r(G)p.r(G)p.r(T)p.r(T)}|RNA2{r(C)p.r(C)p.r(C)p.r(G)p.r(U)p.r(U)p.r(U)p.r(U)p.r(C)p.r(U)p.r(U)p.r(U)p.r(C)p.r(G)p.r(A)p.r(C)p.m(U)p.r(A)p.r(G)p.r(T)p.r(T)}$$$RNA1{StrandType:ss}|RNA2{StrandType:as}$
target mRNA knockdown: 56%

RNA1{r(C)p.m(U)p.r(G)p.r(A)p.r(C)p.r(C)p.r(G)p.r(G)p.r(A)p.r(A)p.r(G)p.r(C)p.r(G)p.r(C)p.r(U)p.m(U)p.r(A)p.r(A)p.r(A)p.r(T)p.r(T)}|RNA2{r(U)p.r(U)p.m(U)p.r(A)p.r(A)p.r(G)p.r(C)p.r(G)p.r(C)p.r(U)p.r(U)p.r(C)p.r(C)p.r(G)p.r(G)p.r(U)p.m(C)p.r(A)p.r(G)p.r(T)p.r(T)}$$$RNA1{StrandType:ss}|RNA2{StrandType:as}$
target mRNA knockdown: 85%

RNA1{r(C)p.r(C)p.r(A)p.[fl2r](G)p.r(C)p.[fl2r](G)p.r(A)p.[fl2r](G)p.r(C)p.r(C)p.r(C)p.r(A)p.r(A)p.r(A)p.r(A)p.[fl2r](G)p.r(A)p.r(A)p.r(A)p.r(T)p.r(T)}|RNA2{[fl2r](U)p.r(U)p.[fl2r](U)p.r(C)p.[fl2r](U)p.r(U)p.[fl2r](U)p.r(U)p.[fl2r](G)p.r(G)p.[fl2r](G)p.r(C)p.[fl2r](U)p.r(C)p.[fl2r](G)p.r(C)p.[fl2r](U)p.r(G)p.[fl2r](G)p.r(T)p.r(T)}$$$RNA1{StrandType:ss}|RNA2{StrandType:as}$
target mRNA knockdown: 35%

RNA1{r(C)p.r(C)p.r(C)p.r(C)p.m(A)p.m(G)p.m(G)p.m(U)p.m(A)p.m(A)p.m(C)p.r(G)p.r(A)p.r(U)p.r(U)p.r(U)p.r(U)p.r(C)p.r(U)p.r(T)p.r(T)}|RNA2{r(A)p.r(G)p.r(A)p.r(A)p.r(A)p.r(A)p.r(U)p.r(C)p.r(G)p.r(U)p.r(U)p.r(A)p.r(C)p.r(C)p.r(U)p.r(G)p.r(G)p.r(G)p.r(G)p.r(T)p.r(T)}$$$RNA1{StrandType:ss}|RNA2{StrandType:as}$
target mRNA knockdown: 79%

RNA1{r(C)p.r(C)p.r(C)p.r(C)p.r(A)p.r(G)p.r(G)p.m(U)p.r(A)p.r(A)p.r(C)p.r(G)p.r(A)p.r(U)p.r(U)p.r(U)p.r(U)p.r(C)p.r(U)p.r(T)p.r(T)}|RNA2{r(A)p.r(G)p.r(A)p.r(A)p.r(A)p.r(A)p.r(U)p.r(C)p.r(G)p.r(U)p.m(U)p.r(A)p.r(C)p.r(C)p.r(U)p.r(G)p.r(G)p.r(G)p.r(G)p.r(T)p.r(T)}$$$RNA1{StrandType:ss}|RNA2{StrandType:as}$
target mRNA knockdown: 70%

RNA1{r(C)p.r(C)p.r(C)p.r(U)p.r(C)p.r(C)p.r(C)p.r(C)p.[fl2r](U)p.r(G)p.r(U)p.r(C)p.r(C)p.r(C)p.r(C)p.r(G)p.[fl2r](C)p.r(U)p.r(U)p.r(T)p.r(T)}|RNA2{r(A)p.r(A)p.r(G)p.r(C)p.r(G)p.r(G)p.r(G)p.r(G)p.r(A)p.[fl2r](C)p.r(A)p.r(G)p.r(G)p.r(G)p.r(G)p.r(A)p.r(G)p.r(G)p.r(G)p.r(T)p.r(T)}$$$RNA1{StrandType:ss}|RNA2{StrandType:as}$
target mRNA knockdown: 72%

RNA1{r(C)p.r(C)p.r(C)p.r(U)p.r(C)p.r(C)p.r(C)p.r(C)p.[fl2r](U)p.r(G)p.r(U)p.r(C)p.r(C)p.r(C)p.r(C)p.r(G)p.r(C)p.r(U)p.r(U)p.r(T)p.r(T)}|RNA2{r(A)p.r(A)p.r(G)p.r(C)p.r(G)p.r(G)p.r(G)p.r(G)p.r(A)p.r(C)p.r(A)p.r(G)p.r(G)p.r(G)p.r(G)p.r(A)p.r(G)p.r(G)p.r(G)p.r(T)p.r(T)}$$$RNA1{StrandType:ss}|RNA2{StrandType:as}$
target mRNA knockdown: 73%

RNA1{r(C)p.r(C)p.r(G)p.r(A)p.r(A)p.r(G)p.r(A)p.r(C)p.r(G)p.m(A)p.m(A)p.r(G)p.r(C)p.m(U)p.r(A)p.m(U)p.r(G)p.r(A)p.r(A)p.r(T)p.r(T)}|RNA2{r(U)p.r(U)p.m(C)p.r(A)p.m(U)p.r(A)p.r(G)p.r(C)p.r(U)p.r(U)p.r(C)p.r(G)p.r(U)p.r(C)p.r(U)p.r(U)p.r(C)p.r(G)p.r(G)p.r(T)p.r(T)}$$$RNA1{StrandType:ss}|RNA2{StrandType:as}$
target mRNA knockdown: 69%

RNA1{r(C)p.r(C)p.r(G)p.r(A)p.r(A)p.r(G)p.r(A)p.r(C)p.r(G)p.r(A)p.r(A)p.r(G)p.r(C)p.[fl2r](U)p.r(A)p.[fl2r](U)p.r(G)p.r(A)p.r(A)p.r(T)p.r(T)}|RNA2{r(U)p.r(U)p.[fl2r](C)p.r(A)p.[fl2r](U)p.r(A)p.r(G)p.r(C)p.r(U)p.r(U)p.r(C)p.r(G)p.r(U)p.r(C)p.r(U)p.r(U)p.r(C)p.r(G)p.r(G)p.r(T)p.r(T)}$$$RNA1{StrandType:ss}|RNA2{StrandType:as}$
target mRNA knockdown: 46%

RNA1{r(C)p.r(C)p.r(G)p.r(A)p.r(A)p.r(G)p.r(A)p.r(C)p.r(G)p.r(A)p.r(A)p.r(G)p.r(C)p.m(U)p.r(A)p.r(U)p.r(G)p.r(A)p.r(A)p.r(T)p.r(T)}|RNA2{r(U)p.r(U)p.m(C)p.r(A)p.r(U)p.r(A)p.r(G)p.r(C)p.r(U)p.r(U)p.r(C)p.r(G)p.r(U)p.r(C)p.r(U)p.r(U)p.r(C)p.r(G)p.r(G)p.r(T)p.r(T)}$$$RNA1{StrandType:ss}|RNA2{StrandType:as}$
target mRNA knockdown: 71%

RNA1{r(C)p.r(C)p.r(G)p.r(A)p.r(A)p.r(G)p.r(A)p.r(C)p.r(G)p.r(A)p.r(A)p.r(G)p.r(C)p.r(U)p.r(A)p.r(U)p.r(G)p.r(A)p.r(A)p.r(T)p.r(T)}|RNA2{r(U)p.r(U)p.r(C)p.r(A)p.[fl2r](U)p.r(A)p.r(G)p.r(C)p.r(U)p.r(U)p.r(C)p.r(G)p.r(U)p.r(C)p.r(U)p.r(U)p.r(C)p.r(G)p.r(G)p.r(T)p.r(T)}$$$RNA1{StrandType:ss}|RNA2{StrandType:as}$
target mRNA knockdown: 47%

RNA1{r(C)p.r(C)p.r(G)p.r(A)p.r(G)p.r(A)p.r(G)p.m(C)p.r(U)p.r(C)p.m(U)p.r(C)p.r(C)p.m(U)p.r(A)p.r(C)p.r(C)p.r(U)p.r(U)p.r(T)p.r(T)}|RNA2{r(A)p.r(A)p.r(G)p.r(G)p.m(U)p.r(A)p.r(G)p.r(G)p.r(A)p.r(G)p.r(A)p.r(G)p.r(C)p.r(U)p.r(C)p.r(U)p.r(C)p.r(G)p.r(G)p.r(T)p.r(T)}$$$RNA1{StrandType:ss}|RNA2{StrandType:as}$
target mRNA knockdown: 72%

RNA1{r(C)p.r(C)p.r(G)p.r(A)p.r(G)p.r(A)p.r(G)p.r(C)p.r(U)p.r(C)p.r(U)p.r(C)p.r(C)p.m(U)p.r(A)p.r(C)p.r(C)p.r(U)p.r(U)p.r(T)p.r(T)}|RNA2{r(A)p.r(A)p.r(G)p.r(G)p.m(U)p.r(A)p.r(G)p.r(G)p.r(A)p.r(G)p.r(A)p.r(G)p.r(C)p.r(U)p.r(C)p.r(U)p.r(C)p.r(G)p.r(G)p.r(T)p.r(T)}$$$RNA1{StrandType:ss}|RNA2{StrandType:as}$
target mRNA knockdown: 75%

RNA1{r(C)p.r(C)p.r(G)p.r(C)p.r(C)p.r(C)p.r(G)p.r(G)p.r(C)p.r(G)p.r(G)p.r(C)p.m(G)p.r(C)p.r(C)p.r(U)p.r(U)p.m(U)p.m(A)p.r(T)p.r(T)}|RNA2{m(U)p.m(A)p.r(A)p.r(A)p.r(G)p.r(G)p.r(C)p.r(G)p.r(C)p.r(C)p.r(G)p.r(C)p.r(C)p.r(G)p.r(G)p.r(G)p.r(C)p.r(G)p.r(G)p.r(T)p.r(T)}$$$RNA1{StrandType:ss}|RNA2{StrandType:as}$
target mRNA knockdown: 85%
